{"source": "patent US12545745B2", "about": "“Method for treating a degenerative neurological disorders comprising administering ASM inhibitor” (KYUNGPOOK NATIONAL UNIVERSITY INDUSTRY-ACADEMIC COOPERATION …, priority 2013, dated 2026)", "molecules": {"B1": {"name": "recombinant ASM: recombinant acid sphingomyelinase protein used to treat human fibroblast (protein)", "chain": "LALSDSRVLWAPAEAHPLSPQGHPARLHRIVPRLRDVFGWGNLTCPICKGLFTAINLGLKKEPNVARVGSVAIKLCNLLKIAPPAVCQSIVHLFEDDMVEVWRRSVLSPSEACGLLLGSTCGHWDIFSSWNISLPTVPKPPPKPPSPPAPGAPVSRILFLTDLHWDHDYLEGTDPDCADPLCCRRGSGLPPASRPGAGYWGEYSKCDLPLRTLESLLSGLGPAGPFDMVYWTGDIPAHDVWHQTRQDQLRALTTVTALVRKFLGPVPVYPAVGNHESTPVNSFPPPFIEGNHSSRWLYEAMAKAWEPWLPAEALRTLRIGGFYALSPYPGLRLISLNMNFCSRENFWLLINSTDPAGQLQWLVGELQAAEDRGDKVHIIGHIPPGHCLKSWSWNYYRIVARYENTLAAQFFGHTHVDEFEVFYDEETLSRPLAVAFLAPSATTYIGLNPGYRVYQIDGNYSGSSHVVLDHETYILNLTQANIPGAIPHWQLLYRARETYGLPNTLPTAWHNLVYRMRGDMQLFQTFWFLYHKGHPPSEPCGTPCRLATLCAQLSARADSPALCRHLMPDGSLPEAQSLWPRPLFC"}}, "key": {"APP/PS1 mice": {"system": "APP/PS1 mice", "assay": "Morris water maze (MWM) test in APP/PS1 mice", "type": "in vivo, mouse", "conditions": "AMI for four months, vs control group, FIG. 26", "procedure": "More specifically, wild type mice, APP/PS1/ASM^+/− mice, ASM^+/− mice and APP/PS1 mice were used. The mice were given four trials per day for 10 days to learn the task, and on day 11, the mice were given a probe trial in which the platform was removed. The escape latency during the test period and the time spent in the target platform on day 11 were measured. The results are illustrated in FIG. 7 and FIG. 8.\n(§1) MWM (Morris water maze) experiments were performed in a conventional manner to identify potential effects on learning and memory. Briefly, for the MWM test, mouse were learned the task four times a day for 10 days, followed by the removal of the platform on the 11th day and subsequently a probe trial performed.\nas §1, with “mice” for “mouse”"}, "β-amyloid": {"system": "β-amyloid", "assay": "β-amyloid deposition in brain tissue of APP/PS1 mice (thioflavin S, immunofluorescence, ELISA)", "type": "in vivo, mouse", "conditions": "cerebral cortex and hippocampus, AMI for four months, FIG. 25", "procedure": "First, the cerebral cortex and hippocampus tissue of each mouse prepared in Example 1-1 were isolated, and then a tissue fragment was obtained and this was dyed with thioflavin S according to a conventional known method. The results are illustrated in FIG. 3 (cerebral cortex) and FIG. 4 (hippocampus).\nAlso, immunofluorescence was performed according to a conventional known method using anti-20G10 (mouse, 1:1000) antibody against Aβ42, anti-G30 (rabbit, […]) antibody against Aβ40, anti-Iba-1 (rabbit, 1:500, Wako) antibody, anti-GFAP (rabbit, 1:500, DAKO) antibody and anti-active caspase3 (rabbit, 1:50, Chemicon) antibody. Tissue fragments were observed using a confocal laser scanning microscope equipped with Fluoview SV1000 imaging software (Olympus FV1000, Japan) or an Olympus BX51 microscope, and the percentage of the area of the dyed area with respect to the area of the entire tissue was quantified using Metamorph software (Molecular Devices).\nAlso, β-amyloid deposition was confirmed using commercially available ELISA kits (Biosource). More specifically, hemispheres of the brain of each mouse were homogenized in a buffer containing 0.02 M of guanidine. Thereafter, ELISA was performed for Aβ40 and Aβ42 according to the manufacturer's instructions.\nAfter fixing the cerebral and hippocampal tissues of the mice, 0.5% thioflavin S (Sigma-Aldrich), anti-20G10 antibodies (mouse, 1:1000) against Aβ42, anti-G30 antibodies (rabbit, […]) against Aβ40, anti-GFAP antibodies (rabbit, 1:500, DAKO), or anti-Iba-1 antibodies (rabbit, 1:500, Wako) were co-cultured. The tissues were analyzed using a laser scanning confocal microscope equipped with Fluoview SV1000 imaging software (Olympus FV1000, Japan) or an Olympus BX51 microscope. Percentage of stained area to total tissue area was quantified and analyzed using Metamorph software (Molecular Devices).\nAfter fixing the mouse brain and hippocampus, 0.5% thioflavin S (Sigma-Aldrich), anti-GFAP (rabbit, 1:500, DAKO), and anti-Iba-1 (rabbit, 1:500, WAKO) were co-cultured together. The regions were analyzed using a laser scanning confocal microscope equipped with Fluoview SV1000 imaging software (Olympus FV1000, Japan) or an Olympus BX51 microscope. Percentage of stained area to total tissue area was quantified and analyzed using Metamorph software (Molecular Devices).\nProteins were extracted from mouse brain and hippocampus, and the amounts of Abeta40 (KHB3481, Invitrogen) and Abeta42 (KHB3441, Invitrogen) were measured using ELISA."}, "ASM": {"target": "T1, ASM (Mus musculus, UniProt Q04519)", "T1 construct": "from tissue; host or cells: mouse serum/plasma and brain tissue (APP/PS1, RSD-stressed C57BL/6, FUS R521C mice)", "T1 sequence (Q04519 45-627)": "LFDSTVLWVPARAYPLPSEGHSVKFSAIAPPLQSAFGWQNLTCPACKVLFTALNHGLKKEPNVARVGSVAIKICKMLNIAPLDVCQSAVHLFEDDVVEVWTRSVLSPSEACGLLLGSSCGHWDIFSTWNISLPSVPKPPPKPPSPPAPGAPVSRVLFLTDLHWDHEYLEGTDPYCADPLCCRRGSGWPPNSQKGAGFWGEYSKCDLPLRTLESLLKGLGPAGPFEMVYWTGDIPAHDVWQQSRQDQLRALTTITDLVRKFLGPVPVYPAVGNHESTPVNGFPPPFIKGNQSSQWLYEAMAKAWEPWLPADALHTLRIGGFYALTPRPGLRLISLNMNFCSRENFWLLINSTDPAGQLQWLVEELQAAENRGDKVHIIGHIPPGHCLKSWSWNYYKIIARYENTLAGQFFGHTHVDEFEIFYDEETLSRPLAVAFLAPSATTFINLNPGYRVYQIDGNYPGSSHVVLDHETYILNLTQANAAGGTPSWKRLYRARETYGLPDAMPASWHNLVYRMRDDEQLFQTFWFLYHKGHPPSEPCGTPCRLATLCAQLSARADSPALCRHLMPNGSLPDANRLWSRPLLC", "assay": "ASM activity / concentration level in serum (plasma) and brain tissue of APP/PS1 mice (UPLC)", "type": "in vivo", "conditions": "APP/PS1 mice, AMI administered for four months, nine month old; FIG. 24", "quoted_text": "More specifically, 3 μl of plasma, brain tissue and fibroblast samples from each mouse were mixed with an ASM activity buffer, and stored at 37° C. The hydrolysis reaction was completed by adding 114 μl of ethanol to the mixed solution, and then the mixed solution was centrifuged. 30 μl of the supernatant was transferred into a glass vial, and then 5 μl was applied to the UPLC system. The ASM concentration level was quantified in comparison with a bodipy (aminoacetaldehyde) combined with sphingomyelin and ceramide. The sphingomyelin and ceramide levels were extracted and quantified according to a known method, by extracting lipid from the sample, resuspending the dried lipid extract in 25 μl of 0.2% Igepal CA-630 (Sigma-Aldrich), and quantifying the concentration level of each lipid using the UPLC system. […] The animal test conducted was approved by the Kyungpook National University Institutional Animal Care and Use Committee (IACUC). Transgenic mouse line overexpressing APPswe (hAPP695swe) and PS1 (presenilin-1M146V) based on C57BL/6 mice (Charles River, UK) were used as Alzheimer's animal models [hereinafter, APP mice: mice overexpressing APPswe, PS1 mice: overexpressing presenilin-1M146V; GlaxoSmithKline]. […] The concentration level of ASM was measured as follows. Specifically, 3μ ? of mouse serum, brain tissue and fibroblast samples were mixed with ASM activity buffer and stored at 37° C. 114 μ ? of ethanol was added to terminate the hydrolysis reaction, followed by centrifugation. […] The ASM concentration levels were quantified by comparison with sphingomyelin and Bodipy (aminoacetaldehyde) conjugated with ceramide. The extraction and quantification of the sphingomyelin and ceramide was carried out by extracting and drying the lipids from the sample according to a known conventional method, and resuspending the dried lipid extract to 25 μl of 0.2% Igepal CA-630 (Sigma-Aldrich), and the concentration levels of each lipid were quantitated using the UPLC system. […] The concentration level of ASM was measured as follows. […]"}, "human fibroblast": {"system": "human fibroblast", "assay": "Autophagy (LC3-I to LC3-II conversion) in human fibroblast treated with recombinant ASM, M6P or NH4Cl", "type": "cell-based", "procedure": "Human fibroblast acquired from the Coriell Institute, and was cultured in DMEM medium containing 15% FBS at 37° C. and 5% of CO2. The cell lines were treated with recombinant ASM (1 μM to 10 μM), and then Western blotting and densitometric quantification were performed in the same manner as Example 2-1. The results are illustrated in FIG. 17 and FIG. 18.\nIn order to confirm how ASM affects autophagy, a test was conducted as follows. Human fibroblast was treated with ASM alone, or treated with ASM in the presence of mannose-6-phosphate (M6P; 10 mM) relating to the action of placing lysosomal enzyme protein in lysosome, and then the accumulation of autophagosome was confirmed using Western blotting and densitometric quantification. The results are illustrated in FIG. 19.\nIn order to confirm whether ASM increases the formation rate of autophagosome, or decreases the degradation rate of autophagosome, autophagic flux assay was performed. […] The results are illustrated in FIG. 20.\nAlso, when treating with NH4Cl or ASM after culturing fibroblast of human with Alzheimer's disease in a serum-free medium or complete medium, the conversion rate from LC3-I to LC3-II was measured using Western blotting. The results are illustrated in FIG. 21 and FIG. 22."}, "[1]": {"conditions": "human fibroblast treated with ASM in the presence of M6P 10 mM, FIG. 19"}, "[2]": {"conditions": "human fibroblast, recombinant ASM 1 μM to 10 μM, FIG. 17, 18"}}, "note": "Structures can show the parent of a compound that is named as a salt."}
{"molecule": "CN(C)CCC=C1c2ccccc2CCc2ccccc21", "note": "[AMI, amitriptyline-hydrochloride, reference compound]", "values": [{"measurement": "ability to remember (escape latency, MWM)", "setting": "APP/PS1 mice", "value": "recovered by decrease in escape latency"}, {"measurement": "deposition of β-amyloid", "setting": "β-amyloid", "value": "inhibited"}, {"measurement": "ASM in brain tissue", "setting": "ASM", "value": "decreased"}, {"measurement": "ASM in serum", "setting": "ASM", "value": "decreased"}]}
{"molecule": "O=C[C@@H](O)[C@@H](O)[C@H](O)[C@H](O)COP(=O)(O)O", "note": "[M6P, mannose-6-phosphate, reference compound]", "values": [{"measurement": "accumulation of ASM-induced autophagosome", "setting": "human fibroblast; [1]", "value": "decreased"}, {"measurement": "conversion to LC3-II", "setting": "human fibroblast; [1]", "value": "decreased"}]}
{"molecule": "Cl.N", "note": "[NH4Cl, reference compound]", "values": [{"measurement": "LC3-II level", "setting": "human fibroblast; fibroblast of human with Alzheimer's disease, serum-free medium (autophagy induced), NH4Cl added, FIG. 21", "value": "increased significantly"}]}
{"molecule": "B1", "values": [{"measurement": "amount of LC3-II (autophagic flux assay)", "setting": "human fibroblast; cells treated with ASM and NH4Cl, FIG. 20", "value": "no significant change"}, {"measurement": "accumulation of LC3-II", "setting": "human fibroblast; fibroblast of human with Alzheimer's disease, serum-free medium (autophagy induced), treated with ASM, FIG. 22", "value": "increased significantly"}, {"measurement": "conversion from LC3-I to LC3-II", "setting": "human fibroblast; [2]", "value": "takes place depending on the concentration"}, {"measurement": "expression of beclin-1", "setting": "human fibroblast; [2]", "value": "no significant change"}]}
